Laboratory results reported in the NIST ThermoML archive (doi:10.1021/je501130r).
Numbers after ± are expanded uncertainties.

Conditions: Liquid, Closed cell (Static) method

SMILES	vapor or sublimation pressure (293.15 K)	vapor or sublimation pressure (303.15 K)	vapor or sublimation pressure (313.15 K)
C=C(F)C(F)(F)F [2,3,3,3-tetrafluoro-1-propene]	591.5 ± 3.5 kPa	783.6 ± 3.8 kPa	1018.9 ± 4.3 kPa
CC(F)(Cl)C(F)(F)F (stereo unspecified) [2-chloro-1,1,1,2-tetrafluoropropane]	128.3 ± 3 kPa	181.6 ± 3.1 kPa	247.6 ± 3.1 kPa
